Data reported in patent USRE47739E1, “2-(pyridin-2-ylamino)-pyrido[2,3-D]pyrimidin-7-ones” (Warner-Lambert Company LLC, priority 2002, dated 2019).
Where a name gives a salt, the structure may show the parent alone.

How the values were obtained:
[1] = biological target: FGF receptor (FGFr) tyrosine kinase (Homo sapiens, UniProt P11362); test: Assay for Inhibition of FGFr; format: biochemical; details: 50 μM ATP, Poly (4:1) glutamate-tyrosine substrate, 25° C.
Protocol: (§1) The assays were carried out as described below.
Assay for Inhibition of FGFr
For FGF receptor (FGFr) tyrosine kinase assays 96-well plates (100 μL/incubation/well), and conditions are optimized to measure the incorporation of ^32P from [γ^32P]ATP into a glutamate-tyrosine co-polymer substrate. Briefly, to each well is added 82.5 μL incubation buffer B (25 mM Hepes (pH 7.0), 150 mM NaCl, 0.1% Triton X-100, 0.2 mM PMSF, 0.2 mM Na3VO4, 10 mM MnCl2) and 750 μg/mL Poly (4:1) glutamate-tyrosine followed by 2.5 μL of the test compound in buffer B and 5 μL of a 7.5 μg/μL FGFr solution to initiate the reaction. Following a 10-minute incubation at 25° C., […] [γ^32P]ATP (0.4 μCi plus 50 μM ATP) is added to each well, and samples are incubated for an additional 10 minutes at 25° C. The reaction is terminated by the addition of 100 μL 30% trichloroacetic acid (TCA) containing 20 mM sodium pyrophosphate and precipitation of material onto glass fiber mats (Wallac). […] Nonspecific activity is defined as radioactivity retained on the filters following incubation of samples with buffer alone (no enzyme). Specific enzymatic activity (enzyme plus buffer) is defined as total activity minus nonspecific activity.

Cdk4/Cyclin D = Cdk4/Cyclin D (Homo sapiens, UniProt P11802); test: Assay for Inhibition of Cdk4/Cyclin D; format: biochemical; details: 25 μM ATP, retinoblastoma protein substrate, 25° C., 15 minutes
Sequence of Cdk4/Cyclin D (P11802 whole entry, species assumed): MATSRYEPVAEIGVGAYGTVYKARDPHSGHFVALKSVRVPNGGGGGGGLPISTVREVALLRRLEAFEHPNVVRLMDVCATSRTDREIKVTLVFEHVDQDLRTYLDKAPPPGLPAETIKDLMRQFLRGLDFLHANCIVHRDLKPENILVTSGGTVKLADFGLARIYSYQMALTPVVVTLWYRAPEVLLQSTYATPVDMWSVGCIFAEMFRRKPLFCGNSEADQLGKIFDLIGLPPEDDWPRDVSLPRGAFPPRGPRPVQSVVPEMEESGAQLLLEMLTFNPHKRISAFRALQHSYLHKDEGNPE
Sequence of Cdk4/Cyclin D (P24385 whole entry partner, species assumed): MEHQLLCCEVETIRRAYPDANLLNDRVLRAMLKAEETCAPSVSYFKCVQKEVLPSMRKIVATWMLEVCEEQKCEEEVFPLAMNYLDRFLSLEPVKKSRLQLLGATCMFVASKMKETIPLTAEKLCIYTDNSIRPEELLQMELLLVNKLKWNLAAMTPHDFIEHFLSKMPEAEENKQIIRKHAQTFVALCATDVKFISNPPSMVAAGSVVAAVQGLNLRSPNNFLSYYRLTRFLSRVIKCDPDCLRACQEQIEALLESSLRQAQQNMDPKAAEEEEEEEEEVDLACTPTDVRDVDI
Protocol: as §1
Assay for Inhibition of Cdk4/Cyclin D
The Cdk4 enzyme assay for IC50 determination and kinetic evaluation is performed as follows. 96-well filter plates (Millipore MADVN6550) are used. […] Buffer A containing excess EDTA was used to determine the level of background ^32P in the absence of enzyme activity. All components except the ATP are added to the wells, and the plate is placed on a plate mixer for 2 minutes. The reaction is started by adding [^32P]ATP, and the plate is incubated at 25° C. for 15 minutes. The reaction is terminated by addition of 0.1 mL 20% trichloroacetic acid (TCA). The plate is kept at 4° C. for at least 1 hour to allow the substrate to precipitate. The wells are then washed five times with 0.2 mL 10% TCA, and ^32P incorporation is determined with a beta plate counter (Wallac Inc., Gaithersburg, Md.).

Sequence of FGF receptor (FGFr) tyrosine kinase (P11362 22-822): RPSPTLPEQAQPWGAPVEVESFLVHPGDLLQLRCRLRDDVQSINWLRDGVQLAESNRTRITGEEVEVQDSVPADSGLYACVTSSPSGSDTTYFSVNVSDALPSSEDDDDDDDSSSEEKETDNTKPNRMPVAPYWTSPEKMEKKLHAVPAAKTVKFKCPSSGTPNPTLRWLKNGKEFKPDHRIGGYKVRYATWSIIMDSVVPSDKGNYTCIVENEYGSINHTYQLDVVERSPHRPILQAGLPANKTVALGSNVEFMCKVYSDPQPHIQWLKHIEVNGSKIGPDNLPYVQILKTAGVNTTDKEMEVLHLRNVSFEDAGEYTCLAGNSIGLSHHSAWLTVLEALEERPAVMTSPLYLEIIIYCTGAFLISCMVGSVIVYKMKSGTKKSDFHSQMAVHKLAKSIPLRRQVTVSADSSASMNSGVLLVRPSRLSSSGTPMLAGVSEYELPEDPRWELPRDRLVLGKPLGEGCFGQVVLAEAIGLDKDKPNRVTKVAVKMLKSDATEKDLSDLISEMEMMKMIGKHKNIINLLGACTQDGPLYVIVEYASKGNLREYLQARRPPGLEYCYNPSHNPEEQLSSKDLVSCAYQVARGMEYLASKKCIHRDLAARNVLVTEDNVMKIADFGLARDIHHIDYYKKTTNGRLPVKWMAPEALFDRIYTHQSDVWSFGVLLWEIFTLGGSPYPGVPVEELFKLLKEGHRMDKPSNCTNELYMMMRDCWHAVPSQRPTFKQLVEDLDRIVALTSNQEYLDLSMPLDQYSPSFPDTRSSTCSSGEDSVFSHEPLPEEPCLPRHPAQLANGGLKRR

SMILES | IC50 [1] | IC50 (Cdk4/Cyclin D)
CCc1cc2cnc(Nc3ccc(N4CCNCC4)cn3)nc2n(C2CCCC2)c1=O [Example 5, 8-Cyclopentyl-6-ethyl-2-(5-piperazin-1-yl-pyridin-2-ylamino)-8H-pyrido[2,3-d]pyrimidin-7-one hydrochloride] | 990 nM | 19 nM
Nc1cc2cnc(Nc3ccc(N4CCNCC4)cn3)nc2n(C2CCCC2)c1=O [Example 11, 6-Amino-8-cyclopentyl-2-(5-piperazin-1-yl-pyridin-2-ylamino)-8H-pyrido[2,3-d]pyrimidin-7-one hydrochloride] | 2120 nM | 12 nM
CN1CCC[C@H]1c1ccc(Nc2ncc3cc(Br)c(=O)n(C4CCCC4)c3n2)nc1 [Example 12, 6-Bromo-8-cyclopentyl-2-[5-((S)-1-methyl-1-pyrrolidin-2-yl)-pyridin-2-ylamino]-8H-pyrido[2,3-d]pyrimidin-7-one hydrochloride] |  | 175 nM
NC(=O)c1ccc(Nc2ncc3cc(Br)c(=O)n(C4CCCC4)c3n2)nc1 [Example 14] |  | 260 nM
O=c1c(F)cc2cnc(Nc3ccc(N4CCNCC4)cn3)nc2n1C1CCCC1 [Example 18, 8-Cyclopentyl-6-fluoro-2-(5-piperazin-1-yl-pyridin-2-ylamino)-8H-pyrido[2,3-d]pyrimidin-7-one hydrochloride] |  | 51 nM
CC(C)COc1cc2cnc(Nc3ccc(N4CCNCC4)cn3)nc2n(C2CCCC2)c1=O [Example 22, 8-Cyclopentyl-6-isobutoxy-2-(5-piperazin-1-yl-pyridin-2-ylamino)-8H-pyrido[2.3-d]pyrimidin-7-one hydrochloride] | > 5000 nM | 1700 nM
O=c1c(CO)cc2cnc(Nc3ccc(N4CCNCC4)cn3)nc2n1C1CCCC1 [Example 29, 8-Cyclopentyl-6-hydroxymethyl-2-(5-piperazin-1-yl-pyridin-2-ylamino)-8H-pyrido[2,3-d]pyrimidin-7-one hydrochloride] | 4380 nM | 13 nM
CC(=O)c1cc2cnc(Nc3ccc(N4CCNCC4)cn3)nc2n(C2CCCC2)c1=O [Example 33, 6-Acetyl-8-cyclopentyl-2-(5-piperazin-1-yl-pyridin-2-ylamino)-8H-pyrido[2.3-d]pyrimidin-7-one hydrochloride] | > 5000 nM | 123 nM
O=c1c(Br)cc2cnc(Nc3ccccn3)nc2n1C1CCCC1 [Example 38, 6-Bromo-8-cyclopentyl-2-(Pyridin-2-ylamino)-8H-pyrido[2,3-]pyrimidin-7-one] | > 5000 nM | 950 nM
CCOCCOc1cc2cnc(Nc3ccc(N4CCNCC4)cn3)nc2n(C2CCCC2)c1=O [Example 53, 8-Cyclopentyl-6-(2-ethoxy-ethoxy)-2-(5-piperazin-1-yl-pyridin-2-ylamino)-8H-pyrido[2,3-d]pyrimidin-7-one] | > 5000 nM | 36 nM
CC(C)n1c(=O)ccc2cnc(Nc3ccc(N4CCNCC4)cn3)nc21 [Example 57, 8-isopropyl-2-(5-piperazin-1-yl-pyridin-2-ylamino)-8H-pyrido[2.3-d]pyrimidin-7-one] | > 5000 nM | > 5000 nM
O=c1ccc2cnc(Nc3ccc(N4CCNCC4)cn3)nc2n1C1CC1 [Example 64, 8-cyclopropyl-2-(5-piperazin-1-yl-pyridin-2-ylamino)-8H-pyrido[2,3-d]pyrimidin-7-one] | 4470 nM | 920 nM
CC(=O)c1c(C)c2cnc(Nc3ccc(N4CCC(N)C4)cn3)nc2n(C2CCCC2)c1=O (stereo not shown) [Example 74, 6-Acetyl-2-[5-(3-amino-pyrrolidin-1-yl)-pyridin-2-ylamino]-8-cyclopentyl-5-methyl-8H-pyrido[2,3-d]pyrimidin-7-one] | > 5000 nM | 14 nM
CC(=O)c1c(C)c2cnc(Nc3ccc(N4CCCNCC4)cn3)nc2n(C2CCCC2)c1=O [Example 81, 6-Acetyl-8-cyclopentyl-2-(5-[1,4]diazepan-1-yl-pyridin-2-ylamino)-5-methyl-8H-pyrido[2,3-d]pyrimidin-7-one] | > 5000 nM | 12 nM
Cc1cc(=O)n(C2CCCC2)c2nc(Nc3ccc(N4CCNCC4)cn3)ncc12 [Example 84, 8-Cyclopentyl-5-methyl-2-(5-piperazin-4-yl-pyridin-2-ylamino)-8H-pyrido[2,3-d]pyrimidin-7-one] | > 5000 nM | 580 nM
Cc1c(Br)c(=O)n(C2CCCC2)c2nc(Nc3ccc(N4CC(C)NC(C)C4)cn3)ncc12 (stereo not shown) [Example 93, 6-Bromo-8-cyclopentyl-2-[5-(3,5-dimethyl-piperazin-1-yl)-pyridin-2-ylamino]-5-methyl-8H-pyrido[2,3-d]pyrimidin-7-one] | > 5000 nM | 63 nM
CC(=O)c1c(C)c2cnc(Nc3ccc(N4CCOCC4)cn3)nc2n(C2CCCC2)c1=O [Example 100, 6-Acetyl-8-cyclopentyl-5-methyl-2-(5-morpholin-4-yl-pyridin-2-ylamino)-8H-pyrido[2,3-d]pyrimidin-7-one] | > 5000 nM | 4 nM
Cc1c(Br)c(=O)n(C2CCCC2)c2nc(Nc3ccc(N4CCCCC4)cn3)ncc12 [Example 103, 6-Bromo-8-cyclopentyl-5-methyl-2-(3,4,5,6-tetrahydro-2H-[1,3]bipyridinyl-6′-ylamino)-8H-pyrido[2,3-d]pyrimidin-7-one] |  | > 5000 nM
CC(=O)c1c(C)c2cnc(Nc3ccc(N4CCCCC4)cn3)nc2n(C2CCCC2)c1=O [Example 105, 6-Acetyl-8-cyclopentyl-5-methyl-2-(3,4,5,6-tetrahydro-2H-[1,3′]bipyridinyl-6′-ylamino)-8H-pyrido[2,3-d]pyrimidin-7-one] |  | 5 nM

Results, then the molecule that gave them:

IC50 [1] | IC50 (Cdk4/Cyclin D) | SMILES
 | 595 nM | CCOC(=O)c1cc2cnc(Nc3ccc(N4CCNCC4)cn3)nc2n(C2CCCC2)c1=O [Example 7, 8-Cyclopentyl-7-oxo-2-(5-piperazin-1-yl-pyridin-2-ylamino)-7,8-dihydro-pyrido[2,3-d]pyrimidine-6-carboxylic acid ethyl ester hydrochloride]
 | > 5000 nM | O=c1c(Br)cc2cnc(Nc3ccccn3)nc2n1C1CCCCC1 [Example 13, 6-Bromo-8-cyclohexyl-2-(pyridin-2-yl-amino)-8H-pyrido[2,3-d]pyrimidin-7-one]
> 5000 nM | 160 nM | Cc1c(Br)c(=O)n(C2CCCC2)c2nc(Nc3ccc(N4CCNCC4)cn3)ncc12 [Example 15, 6-Bromo-8-cyclopentyl-5-methyl-2-(5-piperizin-1-yl-pyridin-2-ylamino)-8H-pyrido[2,3-d]pyrimidin-7-one]
 | 5 nM | CC(=O)c1c(C)c2cnc(Nc3ccc(N4CCN(C)CC4)cn3)nc2n(C2CCCC2)c1=O [Example 72, 6-Acetyl-8-cyclopentyl-5-methyl-2-[5-(4-methyl-piperazin-1-yl)-pyridin-2-ylamino]-8H-pyrido[2,3-d]pyrimidin-7-one]
> 5000 nM | 74 nM | Cc1c(Br)c(=O)n(C2CCCC2)c2nc(Nc3ccc(N4CCC(O)CC4)cn3)ncc12 [Example 75, 6-Bromo-8-cyclopentyl-2-(4-hydroxy-3,4,5,6-tetrahydro-2H-[1,3′]bipyridinyl-6′-ylamino)-5-methyl-8H-pyrido[2,3-d]pyrimidin-7-one]
 | 19 nM | CC(=O)c1c(C)c2cnc(Nc3ccc(N4CCC(O)CC4)cn3)nc2n(C2CCCC2)c1=O [Example 77, 6-Acetyl-8-cyclopentyl-2-(4-hydroxy-3,4,5,6-tetrahydro-2H-[1,3′]bipyridinyl-6′-ylamino)-5-methyl-8H-pyrido[2,3-d]pyrimidin-7-one]
> 5000 nM | 440 nM | CC(=O)c1c(C)c2cnc(Nc3ccccn3)nc2n(C2CCCC2)c1=O [Example 82, 6-Acetyl-8-cyclopentyl-5-methyl-2-(pyridin-2-ylamino)-8H-pyrido[2,3-d]pyrimindin-7-one]
> 5000 nM | 21 nM | CC(=O)c1c(C)c2cnc(Nc3ccc(N4CCNC(C)(C)C4)cn3)nc2n(C2CCCC2)c1=O [Example 90, 6-Acetyl-8-cyclopentyl-2-[5-(3,3-dimethyl-piperazin-1-yl)-pyridin-2-ylamino]-5-methyl-8H-pyrido[2,3-d]pyrimidin-7-one]
> 5000 nM | 37 nM | CC(=O)c1c(C)c2cnc(Nc3ccc(N4CC(C)NC(C)C4)cn3)nc2n(C2CCCC2)c1=O (stereo not shown) [Example 95, 6-Acetyl-8-cyclopentyl-2-[5-(3,5-dimethyl-piperazin-1-yl)-pyridin-2-ylamino]-5-methyl-8H-pyrido[2,3-d]pyrimidin-7-one]
> 5000 nM | 1950 nM | Cc1c(Br)c(=O)n(C2CCCC2)c2nc(Nc3ccc(N4CCOCC4)cn3)ncc12 [Example 98, 6-Bromo-8-cyclopentyl-5-methyl-2-(5-morpholin-4-yl-pyridin-2-ylamino)-8H-pyrido[2,3-d]pyrimidin-7-one]
